Data reported in patent US8901118B2, “Compounds and methods for kinase modulation, and indications therefor” (Plexxikon Inc., priority 2010, dated 2014).

Key:
Flt-3 kinase = biological target: T1, Flt-3 kinase (Homo sapiens, UniProt P36888); test: Flt-3 kinase biochemical activity assay (AlphaScreen); conditions: 100 μM ATP; read-out: Biochemical Inhibition IC50 Flt3
T1 sequence (P36888 27-993): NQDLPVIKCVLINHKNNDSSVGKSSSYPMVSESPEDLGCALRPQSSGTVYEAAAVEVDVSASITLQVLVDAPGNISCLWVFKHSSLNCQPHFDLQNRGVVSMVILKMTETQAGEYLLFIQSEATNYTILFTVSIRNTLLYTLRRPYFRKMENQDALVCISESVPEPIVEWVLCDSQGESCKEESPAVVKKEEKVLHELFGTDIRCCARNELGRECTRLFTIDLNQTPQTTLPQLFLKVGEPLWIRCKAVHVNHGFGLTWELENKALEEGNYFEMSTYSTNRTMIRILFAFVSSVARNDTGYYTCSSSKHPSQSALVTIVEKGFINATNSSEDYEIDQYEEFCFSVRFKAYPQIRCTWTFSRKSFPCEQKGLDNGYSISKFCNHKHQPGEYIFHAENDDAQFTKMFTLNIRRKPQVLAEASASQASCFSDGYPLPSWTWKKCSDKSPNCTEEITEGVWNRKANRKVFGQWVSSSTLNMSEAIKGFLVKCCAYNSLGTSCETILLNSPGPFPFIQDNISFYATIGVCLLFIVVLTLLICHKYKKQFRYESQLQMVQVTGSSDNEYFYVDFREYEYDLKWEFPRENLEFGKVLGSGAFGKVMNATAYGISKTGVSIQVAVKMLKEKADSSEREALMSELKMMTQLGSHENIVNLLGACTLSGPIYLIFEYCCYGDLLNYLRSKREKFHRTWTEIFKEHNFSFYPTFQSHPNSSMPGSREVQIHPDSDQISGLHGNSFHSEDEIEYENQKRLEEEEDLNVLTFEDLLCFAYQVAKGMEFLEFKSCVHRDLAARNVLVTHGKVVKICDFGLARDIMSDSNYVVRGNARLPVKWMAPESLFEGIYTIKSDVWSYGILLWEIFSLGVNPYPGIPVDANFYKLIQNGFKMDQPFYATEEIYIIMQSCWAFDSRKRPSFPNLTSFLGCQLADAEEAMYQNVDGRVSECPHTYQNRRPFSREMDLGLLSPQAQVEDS
Method: In one assay the biochemical activity IC50 values are determined with respect to inhibition of Flt-3 kinase activity, where inhibition of phosphorylation of a peptide substrate is measured as a function of compound concentration. Compounds to be tested, dissolved in DMSO (1 μL), are added to a white 384-well plate (Costar #3705). Working stocks of Flt-3 kinase (Invitrogen), biotin-(E4Y)10 substrate (Upstate Biotech, Cat#12-440), and ATP (Sigma, Cat#A-3377) are prepared in 25 mM Hepes pH 7.5, 5 mM MgCl2, 5 mM MnCl2, 1 mM DTT, and 0.01% Tween-20. All components are added to the 384-well plate for a final concentration of 1 ng/well Flt-3, 30 nM biotin-(E4Y)10 and 100 μM ATP in a volume of 20 μL. Each sample is at 5% DMSO. The plate is then incubated for 1 hour at room temperature. Just before use, working stocks of donor and acceptor beads from the AlphaScreen PY20 Detection Kit (PerkinElmer, Cat#676601M) are prepared in 25 mM Hepes pH 7.5, pH 7.4, 100 mM EDTA. 0.3% BSA. To stop the reaction, the plate is uncovered in the dark and 5 μL of Donor Beads solution (Streptavidin beads) is added to each well. The plate is incubated at room temperature for 20 minutes. Five microliters of Acceptor Beads solution (PY20 coated beads) are then added to each well. The final concentration of each bead is 10 μg/mL. The plates are incubated at room temperature for 60 minutes. Fluorescence signal is recorded on the Envision reader. Phosphorylated substrate results in binding of the PY20 antibody and association of the donor and acceptor beads such that signal correlates with kinase activity. The signal vs. compound concentration is used to determine the IC50.

c-Kit kinase = c-Kit kinase (Homo sapiens, UniProt P10721); test: c-Kit kinase biochemical activity assay (AlphaScreen, biotin-(E4Y)10 phosphorylation); conditions: 100 μM ATP; read-out: Biochemical Inhibition IC50 Kit
c-Kit kinase, sequence (P10721 26-976): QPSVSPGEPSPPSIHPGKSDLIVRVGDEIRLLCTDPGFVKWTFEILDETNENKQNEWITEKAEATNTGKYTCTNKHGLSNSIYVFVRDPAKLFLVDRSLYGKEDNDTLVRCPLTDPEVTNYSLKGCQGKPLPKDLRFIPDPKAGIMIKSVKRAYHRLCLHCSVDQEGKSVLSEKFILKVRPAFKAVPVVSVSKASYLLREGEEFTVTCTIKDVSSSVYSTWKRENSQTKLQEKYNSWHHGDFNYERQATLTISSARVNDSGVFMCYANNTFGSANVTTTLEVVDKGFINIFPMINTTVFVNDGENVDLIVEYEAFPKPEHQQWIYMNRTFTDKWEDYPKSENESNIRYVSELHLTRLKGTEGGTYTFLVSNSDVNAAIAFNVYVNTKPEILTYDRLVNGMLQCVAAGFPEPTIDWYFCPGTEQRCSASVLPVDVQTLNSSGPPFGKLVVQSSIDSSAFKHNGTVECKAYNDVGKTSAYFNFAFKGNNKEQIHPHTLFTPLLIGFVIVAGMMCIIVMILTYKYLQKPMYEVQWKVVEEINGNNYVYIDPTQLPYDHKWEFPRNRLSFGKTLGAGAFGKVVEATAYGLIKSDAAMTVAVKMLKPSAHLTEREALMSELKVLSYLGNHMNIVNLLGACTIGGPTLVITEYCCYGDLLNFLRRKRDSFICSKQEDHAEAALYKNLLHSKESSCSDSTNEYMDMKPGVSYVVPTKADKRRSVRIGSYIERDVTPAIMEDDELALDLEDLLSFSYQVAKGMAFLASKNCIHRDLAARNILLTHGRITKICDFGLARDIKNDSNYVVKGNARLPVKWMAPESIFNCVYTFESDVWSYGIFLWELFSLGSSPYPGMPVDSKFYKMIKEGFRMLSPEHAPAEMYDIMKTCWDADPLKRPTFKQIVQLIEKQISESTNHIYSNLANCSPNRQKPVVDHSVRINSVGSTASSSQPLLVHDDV
How it was run: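 Phosphorylation of 30 nM biotin-(E4Y)10 by c-Kit (0.75 ng per reaction) with 100 µM ATP in HEPES pH 7.5 buffer with Mg2+/Mn2+, 5% DMSO, 1 h at room temperature; 8-point 1:2 compound dilutions. AlphaScreen detection with streptavidin donor and PY20 acceptor beads after EDTA stop. IC50 from signal versus concentration.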

Compound	IC50 (Flt-3 kinase) [nM]	IC50 (c-Kit kinase) [nM]
CCOc1ccc(Nc2ccc(Cc3c[nH]c4ncnc(OC)c34)c(F)n2)cn1 [Compound P-4005, (6-Ethoxy-pyridin-3-yl)-[6-fluoro-5-(4-methoxy-7H-pyrrolo[2,3-d]pyrimidin-5-ylmethyl)-pyridin-2-yl]-amine]	< 100	< 100
CCOc1ccc(Nc2ccc(Cc3c[nH]c4ncnc(C)c34)c(F)n2)cn1 [Compound P-4006, (6-Ethoxy-pyridin-3-yl)-[6-fluoro-5-(4-methyl-7H-pyrrolo[2,3-d]pyrimidin-5-ylmethyl)-pyridin-2-yl]-amine]	< 100	< 100
CCc1ccc(Nc2ccc(Cc3c[nH]c4ncnc(OC)c34)c(F)n2)cn1 [Compound P-4007, (6-Ethyl-pyridin-3-yl)-[6-fluoro-5-(4-methoxy-7H-pyrrolo[2,3-d]pyrimidin-5-ylmethyl)-pyridin-2-yl]-amine]	< 100	< 100
CCOc1ccc(Nc2ccc(Cc3c[nH]c4ncnc(OCCOC)c34)c(F)n2)cn1 [Compound P-4008, (6-Ethoxy-pyridin-3-yl)-{6-fluoro-5-[4-(2-methoxy-ethoxy)-7H-pyrrolo[2,3-d]pyrimidin-5-ylmethyl]-pyridin-2-yl}-amine]	< 100	< 1000
CCc1ccc(Nc2ccc(Cc3c[nH]c4ncnc(C)c34)c(F)n2)cn1 [Compound P-4009, (6-Ethyl-pyridin-3-yl)-[6-fluoro-5-(4-methyl-7H-pyrrolo[2,3-d]pyrimidin-5-ylmethyl)-pyridin-2-yl]-amine]	< 100	< 100
COc1ncnc2[nH]cc(Cc3ccc(Nc4ccc(C)nc4)nc3F)c12 [Compound P-4010, [6-Fluoro-5-(4-methoxy-7H-pyrrolo[2,3-d]pyrimidin-5-ylmethyl)-pyridin-2-yl]-(6-methyl-pyridin-3-yl)-amine]	< 1000	< 1000
CCn1cc(Nc2ccc(Cc3c[nH]c4ncnc(OC)c34)c(F)n2)cn1 [Compound P-4011, (1-Ethyl-1H-pyrazol-4-yl)-[6-fluoro-5-(4-methoxy-7H-pyrrolo[2,3-d]pyrimidin-5-ylmethyl)-pyridin-2-yl]-amine]	< 1000	< 1000
CCOc1ncnc2[nH]cc(Cc3ccc(Nc4cnn(CC)c4)nc3F)c12 [Compound P-4012, [5-(4-Ethoxy-7H-pyrrolo[2,3-d]pyrimidin-5-ylmethyl)-6-fluoro-pyridin-2-yl]-(1-ethyl-1H-pyrazol-4-yl)-amine]	< 1000	< 1000
CCn1cc(Nc2ccc(Cc3c[nH]c4ncnc(C)c34)c(F)n2)cn1 [Compound P-4013, (1-Ethyl-1H-pyrazol-4-yl)-[6-fluoro-5-(4-methyl-7H-pyrrolo[2,3-d]pyrimidin-5-ylmethyl)-pyridin-2-yl]-amine]	> 1000	< 1000
CCn1cc(Nc2ccc(Cc3c[nH]c4ncnc(OCCOC)c34)c(F)n2)cn1 [Compound P-4014, (1-Ethyl-1H-pyrazol-4-yl)-{6-fluoro-5-[4-(2-methoxy-ethoxy)-7H-pyrrolo[2,3-d]pyrimidin-5-ylmethyl]-pyridin-2-yl}-amine]	< 1000	< 100
COCCOc1ncnc2[nH]cc(Cc3ccc(Nc4ccc(C)nc4)nc3F)c12 [Compound P-4015, {6-Fluoro-5-[4-(2-methoxy-ethoxy)-7H-pyrrolo[2,3-d]pyrimidin-5-ylmethyl]-pyridin-2-yl}-(6-methyl-pyridin-3-yl)-amine]	> 1000	< 100
CCc1ccc(Nc2ccc(Cc3c[nH]c4ncnc(OCCOC)c34)c(F)n2)cn1 [Compound P-4016, (6-Ethyl-pyridin-3-yl)-{6-fluoro-5-[4-(2-methoxy-ethoxy)-7H-pyrrolo[2,3-d]pyrimidin-5-ylmethyl]-pyridin-2-yl}-amine]	< 10	< 100
CCOc1ncnc2[nH]cc(Cc3ccc(Nc4ccc(C)nc4)nc3F)c12 [Compound P-4017, [5-(4-Ethoxy-7H-pyrrolo[2,3-d]pyrimidin-5-ylmethyl)-6-fluoro-pyridin-2-yl]-(6-methyl-pyridin-3-yl)-amine]	< 100	< 100
